Measured values reported in patent publication US20020106348A1, “Cancer therapeutics involving the administration of 2-methoxyestradiol and an agent that increases intracellular superoxide anion” (priority 2000, published 2002).
Like-named read-outs stand apart in the source and are kept apart here.

Key:
CEM = assay: MTT assay, CEM leukemia cells; format: cell-based; details: Homo sapiens, CCRF-CEM, CEM (mutant p53)
human DNA polymerase α = human DNA polymerase α (Homo sapiens, UniProt P09884); assay: Effect on DNA polymerase α; format: biochemical; details: 1-100 μM
ALL cells = assay: MTT assay, primary ALL cells; format: cell-based, human; details: 30 μM, 2 patients
ML-1 [1] = assay: H2O2 generation in cell culture, ML-1 cells; format: cell-based, human
Raji = assay: MTT assay, Raji cells; format: cell-based; details: Homo sapiens, Raji (mutant p53)
human CuZnSOD = target: T1, human CuZnSOD (Homo sapiens, UniProt P00441); assay: In vitro SOD activity assay (xanthine/xanthine oxidase, XTT), human CuZnSOD; format: biochemical; details: purified enzyme; read-out: IC50, inhibition of human CuZnSOD
T1 construct: purchased Sigma

CLL cells [2] = tested on: CLL cells
leukemia cell lines = assay: Apoptosis induction in leukemia cell lines; format: cell-based, human; details: leukemia cell lines tested
HL-60 [3] = assay: H2O2 generation in cell culture, HL-60 cells; format: cell-based, human
E. coli MnSOD = E. coli MnSOD (Escherichia coli, UniProt P00448); assay: In vitro SOD activity assay, E. coli MnSOD; format: biochemical; details: purified enzyme; read-out: IC50, inhibition of E. coli MnSOD
Protocol: (§1) A spectrophotometric assay was used to determine the effect of 2-methoxyestradiol (2-ME) on SOD activity in vitro with purified enzymes (bovine CuZnSOD from Boehringer Mannheim; human CuZnSOD and E. coli MnSOD from Sigma). The reactions contained 2.5 ml of 50 mM Na2CO3, 0.1 ml of 3 mM xanthine, 0.1 ml of 3 mM EDTA, and 0.1 ml of 0.8 mM XTT (3′-(1-[phenylamino-carbonyl]3,4-tetrazolium)-bis(4-methoxy-6-nitro)benzene-sulfonic acid hydrate), and the indicated concentrations of SOD and 2-ME. Xanthine oxidase (0.1 ml, 64 mU/ml) was added to start the reaction. After incubation at 24° C. for 30 min, the absorbance at 470 nm was measured. The relative activity (RA) of SOD was calculated by the following formula: […]
(§2) where a is the absorbance of reaction without SOD, b is the absorbance of reaction with SOD but without 2-ME, c is the absorbance of reaction with SOD in the presence of 2-ME. All values were subtracted by the background reading of the blank. In separate experiments using nitro blue tetrazolium or cytochrome c as substrates for SOD assay, 2-ME and DMSO (as a solvent for 2-ME) interfered with the calorimetric reaction. These artifacts preclude the use of NBT or cytochrome c as the substrates for measuring the effect of 2-ME on SOD activity. Neither 2-ME nor DMSO affect the calorimetric reaction of XTT.

HL-60 [4] = assay: Apoptosis / nucleosomal DNA fragmentation in HL-60 cells; format: cell-based, human
CuZnSOD = assay: Inhibition of CuZnSOD by estrogen derivatives; format: biochemical; details: FIG. 20
ML-1 [5] = assay: Apoptosis / nucleosomal DNA fragmentation in ML-1 cells; format: cell-based, human; details: 1 μM; ML-1 (wt p53)
CML cells = assay: MTT assay, primary CML cells; format: cell-based, human; details: 30 μM, 3 patients
K562 = assay: MTT assay, K562 cells; format: cell-based; details: Homo sapiens, K562 (no p53)
HL-60 cells = assay: Cellular O2^- by flow cytometry, HL-60 cells; format: cell-based, human; details: 0.25 μM
CLL cells [6] = assay: Cellular O2^- by hydroethidine flow cytometry, CLL cells; format: cell-based, human
Protocol: The method using hydroethidine to detect O2^− in tissue sections was adapted for quantitation of intracellular O2^− by flow cytometry analysis. This assay is based on the unique chemical properties of hydroethidine, a weak blue fluorescent dye which is selectively converted by O2^− to ethidium with a bright red fluorescence. The control and drug-treated cells (1.5×10^6/sample) were incubated with hydroethidine (20 ng/ml) for 60 min, washed twice with 3 ml PBS, resuspended in 2 ml PBS, and then analyzed within 1 h by flow cytometry, using the red laser channel.

[7] = tested on: leukemia cells from a CML (chronic myelogenous leukemia) patient in relapsed blast crisis; assay: Induction of apoptosis in primary leukemia cells from a CML patient; format: cell-based, human; details: in vitro
AML cells = assay: MTT assay, primary AML cells; format: cell-based, human; details: 30 μM, 6 patients
ML-1 cells = assay: Cellular O2^- by hydroethidine flow cytometry, ML-1 cells; format: cell-based, human; details: ML-1, 1 μM, 5 h; control 4.3
SOD = SOD inhibition in vitro (restated, enzyme not specified); format: biochemical; details: restated in discussion
[8] = tested on: bovine alkaline phosphatase; assay: Effect on alkaline phosphatase (removal of 5'-phosphate from [14C]GMP); format: biochemical; details: 1-100 μM
CuZnSOD (SOD1) mRNA = assay: cDNA microarray assay of gene expression; format: cell-based, human; details: 5 h after 2-ME incubation; normalized by three internal standards
Text: The Atlas™ Human cDNA Expression Array I and the Atlas™ Human Cancer cDNA Expression Array (ClonTech Laboratories, Inc.) were used in this study. One microgram of mRNA isolated from the control or drug-treated cells was converted to radioactive cDNA by reverse transcription in the presence of [α-^32P]-dATP. The ^32P-labeled cDNA was then denatured and hybridized to the eDNA expression arrays according to the procedures recommended by the manufacturer. The radioactivity on the membranes was quantified by a phosphoimager.

SOD1 protein = assay: Immunoblot of SOD1 protein in ML-1 cells; format: cell-based, human; details: ML-1 cells at 10 h
PHA-treated lymphocytes = assay: MTT assay, PHA-stimulated lymphocytes; format: cell-based, human; details: 3-day drug incubation
xanthine oxidase = assay: Effect on xanthine oxidase; format: biochemical; details: 1-100 μM
bovine CuZnSOD = target: T2, bovine CuZnSOD (Bos taurus, UniProt P00442); assay: In vitro SOD activity assay, bovine CuZnSOD; format: biochemical; details: purified enzyme; read-out: IC50, inhibition of bovine CuZnSOD
T2 construct: purchased Boehringer Mannheim
Protocol: as §1, §2

normal lymphocytes = assay: DNA fragmentation in normal lymphocytes; format: cell-based, human; details: 0-30 μM, additional 3 days

T2 sequence (P00442 whole entry): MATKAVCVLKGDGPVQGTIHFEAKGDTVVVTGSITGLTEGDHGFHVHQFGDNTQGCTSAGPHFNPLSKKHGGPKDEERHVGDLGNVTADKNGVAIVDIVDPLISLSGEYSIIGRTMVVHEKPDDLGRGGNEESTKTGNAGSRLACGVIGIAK
E. coli MnSOD, sequence (P00448 whole entry): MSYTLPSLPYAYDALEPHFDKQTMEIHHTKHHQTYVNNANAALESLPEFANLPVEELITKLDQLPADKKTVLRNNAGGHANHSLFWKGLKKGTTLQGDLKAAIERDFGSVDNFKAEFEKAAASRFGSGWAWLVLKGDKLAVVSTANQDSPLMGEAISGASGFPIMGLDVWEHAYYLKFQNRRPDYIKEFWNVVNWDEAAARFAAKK
T1 sequence (P00441 whole entry): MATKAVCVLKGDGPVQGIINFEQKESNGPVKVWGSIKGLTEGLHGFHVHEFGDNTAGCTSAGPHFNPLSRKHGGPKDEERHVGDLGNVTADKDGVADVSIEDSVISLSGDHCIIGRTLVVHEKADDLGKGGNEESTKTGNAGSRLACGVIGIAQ
human DNA polymerase α, sequence (P09884 whole entry): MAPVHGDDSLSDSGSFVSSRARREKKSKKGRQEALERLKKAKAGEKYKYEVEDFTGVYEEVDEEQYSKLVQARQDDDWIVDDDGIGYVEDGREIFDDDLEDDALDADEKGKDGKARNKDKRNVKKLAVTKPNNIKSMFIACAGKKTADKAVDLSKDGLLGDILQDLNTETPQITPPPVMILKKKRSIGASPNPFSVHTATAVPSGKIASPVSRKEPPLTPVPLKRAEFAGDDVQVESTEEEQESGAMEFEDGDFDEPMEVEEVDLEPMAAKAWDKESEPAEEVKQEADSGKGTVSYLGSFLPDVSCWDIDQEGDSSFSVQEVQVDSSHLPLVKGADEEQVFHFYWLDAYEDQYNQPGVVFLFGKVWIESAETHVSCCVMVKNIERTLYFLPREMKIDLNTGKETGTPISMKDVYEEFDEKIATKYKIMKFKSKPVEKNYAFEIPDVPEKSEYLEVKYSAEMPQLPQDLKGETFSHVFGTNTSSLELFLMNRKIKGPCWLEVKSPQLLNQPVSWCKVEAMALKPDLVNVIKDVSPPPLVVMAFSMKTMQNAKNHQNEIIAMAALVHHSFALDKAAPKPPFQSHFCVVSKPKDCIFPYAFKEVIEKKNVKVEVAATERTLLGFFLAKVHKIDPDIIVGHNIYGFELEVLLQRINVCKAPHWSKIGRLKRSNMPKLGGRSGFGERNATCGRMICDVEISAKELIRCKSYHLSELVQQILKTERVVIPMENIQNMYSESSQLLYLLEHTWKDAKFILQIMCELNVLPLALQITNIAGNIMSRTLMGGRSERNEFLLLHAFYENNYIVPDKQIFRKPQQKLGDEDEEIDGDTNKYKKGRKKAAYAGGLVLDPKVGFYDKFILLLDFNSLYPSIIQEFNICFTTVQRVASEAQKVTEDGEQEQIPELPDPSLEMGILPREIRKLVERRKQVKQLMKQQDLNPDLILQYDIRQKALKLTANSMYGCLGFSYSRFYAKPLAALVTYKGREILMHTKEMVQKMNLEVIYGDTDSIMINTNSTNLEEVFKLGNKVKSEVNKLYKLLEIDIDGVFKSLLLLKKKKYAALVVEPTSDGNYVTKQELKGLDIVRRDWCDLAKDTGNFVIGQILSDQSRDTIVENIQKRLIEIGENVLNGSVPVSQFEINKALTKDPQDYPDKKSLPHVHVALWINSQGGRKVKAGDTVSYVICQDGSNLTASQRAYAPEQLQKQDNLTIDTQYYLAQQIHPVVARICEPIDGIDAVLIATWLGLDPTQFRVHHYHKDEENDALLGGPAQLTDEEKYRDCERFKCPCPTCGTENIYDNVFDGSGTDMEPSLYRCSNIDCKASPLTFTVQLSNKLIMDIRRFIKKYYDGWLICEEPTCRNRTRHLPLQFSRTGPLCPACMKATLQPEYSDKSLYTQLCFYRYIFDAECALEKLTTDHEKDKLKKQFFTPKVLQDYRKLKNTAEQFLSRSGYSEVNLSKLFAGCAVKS

COc1cc2c(cc1O)CC[C@@H]1[C@@H]2CC[C@]2(C)[C@@H](O)CC[C@@H]12 [2-ME, 1,3,5(10)-estratrien-2,3,17b-triol 2 methylether]
IC50 (CEM): < 1 µM | effect on DNA polymerase α (human DNA polymerase α): little effect | cell survival (ALL cells): 56.5% | H2O2 production (ML-1 [1]): concentration-dependent decrease of H2O2 | IC50 (Raji): < 1 µM | IC50 (human CuZnSOD): ~20 µM | cell survival (CLL cells [2]; 30 μM, CLL cells, 31 patients): 32.7% | sensitivity to single agent (CLL cells [2]; 2-ME-resistant CLL cells): insensitive to either drug alone | toxicity to CLL cells versus normal lymphocytes (CLL cells [2]; 10 and 30 μM, p<0.0001): significantly more toxic to CLL cells than to normal lymphocytes | sensitivity to single agent (CLL cells [2]; CLL cells of the two sensitive patients): relatively sensitive | cell survival in CLL cells (CLL cells [2]; FIGS. 6-8, MTT 72-96 h): substantial loss of cell survival | cell survival (CLL cells [2]; primary leukemia cells from a CLL patient, 2-ME alone (FIG. 32)): loss of cell survival | concentrations inducing apoptosis (leukemia cell lines): 1 to 10 µM | H2O2 production (HL-60 [3]): concentration-dependent decrease of H2O2 | IC50 (E. coli MnSOD): ~20 µM | apoptotic morphology and nucleosomal DNA fragmentation (HL-60 [4]; 1 μM, HL-60 (p53−)): Typical apoptotic morphology and nucleosomal DNA fragmentation were observed | DNA fragmentation (apoptosis) in HL-60 cells (HL-60 [4]; estrogen derivatives, FIG. 20): induced DNA fragmentation | inhibition of SOD activity (CuZnSOD): substantially inhibited SOD activity | apoptotic morphology and nucleosomal DNA fragmentation (ML-1 [5]): Typical apoptotic morphology and nucleosomal DNA fragmentation were observed | cell survival (CML cells): 54.7% | IC50 (K562): < 1 µM | cellular O2^− content (HL-60 cells): increase of cellular O2^− | O2^− increase (CLL cells [6]; CLL cells, 30 μM): 226±37% | cellular O2^− (CLL cells [6]; primary leukemia cells from a CLL patient, 2-ME alone): significant accumulation of cellular O2^− | apoptosis in primary CML cells [7]: induced apoptosis | cell survival (AML cells): 49.6% | cellular O2^− content (ML-1 cells): 6.3 arbitrary units | IC50 (SOD): ~20 µM | effect on alkaline phosphatase [8]: little effect | expression of CuZnSOD mRNA, % of the control (CuZnSOD (SOD1) mRNA): 236% | increase of SOD1 protein (SOD1 protein): 74% | viability of PHA-treated lymphocytes (PHA-treated lymphocytes): remained viable | proliferation of PHA-treated lymphocytes (PHA-treated lymphocytes; MTT, PHA 5 μg/ml): inhibited the proliferation | effect on xanthine oxidase (xanthine oxidase): little effect | IC50 (bovine CuZnSOD): ~20 µM | nucleosomal DNA fragmentation (normal lymphocytes): no nucleosomal DNA fragmentation was detected
